Starred links: 1 amine or outer side, 2 acyl side, 3 side chain; linkers in the order of their positions; H or OH if unused. Residues, ends and D or L forms follow the SMILES beside them. *: point of attachment. Doxorubicin(3'-N) = COc1cccc2c1C(=O)c1c(O)c3c(c(O)c1C2=O)C[C@@](O)(C(=O)CO)C[C@@H]3O[C@H]1C[C@H](N*)[C@H](O)[C@H](C)O1; DBCO = C1#Cc2ccccc2N(*)Cc2ccccc21; Suc = O=C(CCC(=O)[*:2])[*:1]
Columns and labels:
HT1080 cells [1] = assay: Confocal fluorescence microscopy, co-localization (PCC) of DOX fluorescence; assay type: cell-based, human; settings: 24 h incubation, 0.3 μM free DOX; mean ± SD of three images
Procedure: HT1080 cells were seeded one day before the experiment at a density of 78,500 cells in 1.3 mL of complete medium into a glass-bottom microwell dish (35 mm petri dish, 14 mm microwell, MatTek Corporation). […] Control cells were incubated in serum-free medium under the same experimental conditions. Cells were then washed with DPBS and incubated for 20 min with 1 μg/mL Hoechst 33,342 stain and 70 nM of LysoTracker® Green DND-26. Prior to imaging, cells were washed with DPBS and serum-free medium was put into every dish. Fluorescence imaging was carried our using a Zeiss LSM780 (Zeiss, Jena, Germany) inverted confocal microscope. The microscopic images were using 405 and 488 nm lasers as excitation wavelengths, 495–525, 575–625 and 415–492 nm emission filters, and an objective lens, Plan-Aprochromat 63 x/1.4 oil DIC M27. During the image acquisition time, slides were kept at 37 °C in a humidified chamber (INUBTF-WSKM-F1, Tokai Hit, Japan). ZEN 2 software (Zeiss, Jena, Germany) was used for image processing. […] […] PCC was calculated in regions of interest (ROI), separately defined for each image by masking the entire dataset with the red channel (DOX fluorescence). The value of PCC for each experiment is presented as mean ± S.D. calculated from three separate images.

[2] = tested on: HT1080 human fibrosarcoma cells; assay: WST-1 cell proliferation / cytotoxicity assay; assay type: cell-based; settings: for Survival Rate (SR) / Cytotoxicity (in words): HT1080, 72 h; for Cytotoxicity (in words): WST-1, 5-50 μM DOX eq (Figure S14), n = 3
Procedure: Human fibrosarcoma cell line HT1080 (ATCC® CCL-121™, Manassas, VA, USA) was grown as monolayers in DMEM (1x) + GlutaMAX™-1 medium supplemented with 10% fetal calf serum and […] streptomycin and 100 IU/mL penicillin. Cells were cultivated at 37 °C in humidified 95% air and 5% CO2 atmosphere and routinely maintained by serial passage in a new medium. Prior to experiments, cells were tested for mycoplasma contamination with the MycoAlert™ kit.
Cells were seeded at a density of 8000 cells/well in a 96-well plate (clear-bottom black plate, 3603, Corning, Luzern, Switzerland) one day prior to the experiment. […] Cell proliferation assays were performed at 72 h upon incubation using a Cell Proliferation reagent (WST-1) following the manufacturer’s recommendations. The absorption was measured at 450 nm with a plate reader (Safire). The percentage of cell survival was calculated with respect to control samples treated with either medium or a solution of DMSO (50%) in serum-free medium, as follows: [A (test-conc.) − A (100% dead)/A (100% viable) − A (100% dead)] × 100. Mean values from three wells were determined and expressed as ± S.D. All assays were done in triplicates.

HT1080 cells [3] = assay: Cell cycle analysis by flow cytometry (Hoechst 33342, Dean-Jett-Fox model); assay type: cell-based, human
Procedure: (§1) HT1080 cells were seeded in 6-well plates (flat-bottom cell culture microplate, 3505, Corning, Luzern, Switzerland) at a density of 150,000 cells/well and were left to attach overnight. […] Cells were incubated for 24, 48 and 72 h in the dark at 37 °C. Cells were washed 3 times with DPBS, detached from the surface with a cell-scraper and resuspended in 500 μL of DPBS. Cells were analyzed immediately on a BD LSR Fortessa cell analyzer (BD Biosciences, San Jose, CA, USA). […] For this purpose, 1 mM Tris buffer was prepared and the pH was adapted to 7.6 with 30% HCl. Igepal CA-630 and Hoechst 3342 (5 μg/mL final concentration) were added, and the reagent was filtered. […] Samples were incubated at 4 °C for 1 h and analyzed with a BDLSR Fortessa cell analyzer. Acquisition data were analyzed using FlowJo V10 software (FLOWJO, LCC, Ashland, OR, USA). For cell cycle analysis, the Dean-Jett-Fox model was used. All measurements were done in triplicates. Mean values and S.D. were calculated and plotted for each tested compound.

HT1080 cells [4] = assay: Flow cytometry of intracellular and nuclear DOX accumulation; assay type: cell-based, human; settings: 24 h, 0.3 μM (DOX eq), isolated nuclei, triplicates
Procedure: as §1, with “compound. Fluorescence of control cells incubated in serum-free medium was subtracted from acquired DOX-emitted fluorescence.” for “compound.”

[5] = 24 h, 0.3 μM (DOX eq), mean ± S.D., n = 3
[6] = 48 hours, equimolar concentration (DOX eq)
[7] = 72 hours, equimolar concentration (DOX eq)

COc1cccc2c1C(=O)c1c(O)c3c(c(O)c1C2=O)C[C@@](O)(C(=O)CO)C[C@@H]3O[C@H]1C[C@H](N)[C@H](O)[C@H](C)O1.Cl [DOX, Doxorubicin hydrochloride salt]
PCC between DOX and Hoechst 33342 (HT1080 cells [1]): 0.41 ± 0.10
Survival Rate (SR) ([2]; WST-1, [Dox] 0.01 mM as printed, SD 9.7 wrapped): 86.4%
Survival Rate (SR) ([2]; WST-1, [Dox] 0.05 mM as printed, SD 10.6 wrapped): 81.7%
Survival Rate (SR) ([2]; WST-1, [Dox] 0.10 mM as printed, SD 9.7 wrapped): 69.9%
Survival Rate (SR) ([2]; WST-1, [Dox] 0.15 mM as printed, SD 7.3 wrapped): 53.7%
Survival Rate (SR) ([2]; WST-1, [Dox] 0.2 mM as printed, SD 4.7 wrapped): 34.6%
Survival Rate (SR) ([2]; WST-1, [Dox] 0.4 mM as printed, SD 1.3 wrapped): 6.9%
Survival Rate (SR) ([2]; WST-1, [Dox] 0.5 mM as printed, SD 0.4 wrapped): 1.3%
Survival Rate (SR) ([2]; WST-1, [Dox] 0.6 mM as printed, SD 0.5 wrapped): 0.4%
Survival Rate (SR) ([2]; WST-1, [Dox] 0.8 mM as printed, SD 0.7 wrapped): 0%
Survival Rate (SR) ([2]; WST-1, [Dox] 1.0 mM as printed, SD 0.5 wrapped): 0.4%
IC50 ([2]; HT1080, 72 h incubation, WST-1, free DOX (data not shown)): 160 nM
% G1 (HT1080 cells [3]; [5]): 30.4 ± 2.3%
% S (HT1080 cells [3]; [5]): 36.7 ± 11.9%
% G1 (HT1080 cells [3]; [6]): 29.2 ± 1.5%
% G2 (HT1080 cells [3]; [6]): 33.6 ± 5.7%
% S (HT1080 cells [3]; [6]): 32.3 ± 4.4%
% G1 (HT1080 cells [3]; [7]): 32.6 ± 3.2%
% G2 (HT1080 cells [3]; [7]): 27.3 ± 8.1%
% S (HT1080 cells [3]; [7]): 35.8 ± 6.7%
DOX accumulation in the nucleus (HT1080 cells [4]): significant DOX accumulation in the nucleus

COc1cccc2c1C(=O)c1c(O)c3c(c(O)c1C2=O)C[C@@](O)(C(=O)CO)C[C@@H]3O[C@H]1C[C@H](NC(=O)CNC(=O)[C@H](C)NC(=O)[C@H](C)NC(=O)[C@H](CCCNC(=N)N)NC(=O)[C@H](CCCNC(=N)N)NC(=O)CNC(=O)[C@H](C)NC(=O)CNC(=O)CCC(=O)N2Cc3ccccc3C#Cc3ccccc32)[C@H](O)[C@H](C)O1 ({DBCO-Suc}-GAGRRAAG-{Doxorubicin(3'-N)})
Cytotoxicity (in words) [2]: significant cytotoxicity

PEG10-GAGRRAAG-DOX
Cytotoxicity (in words) [2]: no cytotoxicity

Source: PMC7570921, “Cathepsin B-Cleavable Cyclopeptidic Chemotherapeutic Prodrugs” (Molecules, 2020)
